Where “and” joins values, the source holds several entries; their conditions need not be identical. Equal values may be shown once. Read-outs that look alike come from different tables or passages of the source.
Assays:
[1] = test system: Plasmodium falciparum field isolate MRA-1239 (ART-sensitive); assay: In vitro anti-malarial efficacy (growth inhibition), XN-30 analyzer, MRA-1239 isolate; type: cell-based; settings: read-out: IC50 MRA-1239
[2] = test system: Plasmodium falciparum field isolate MRA-1240 (ART-resistant); assay: In vitro anti-malarial efficacy (growth inhibition), XN-30 analyzer, MRA-1240 isolate; type: cell-based; settings: read-out: IC50 MRA-1240
[3] = test system: Plasmodium falciparum 3D7 (CQ- and PYR-sensitive); assay: In vitro anti-malarial efficacy (growth inhibition), XN-30 analyzer, 3D7 strain; type: cell-based; settings: read-out: IC50 3D7
[4] = test system: Plasmodium falciparum W2 (CQ- and PYR-resistant); assay: In vitro anti-malarial efficacy (growth inhibition), XN-30 analyzer, W2 strain; type: cell-based; settings: read-out: IC50 W2
[5] = Cytotoxic assay (Cell Counting Kit-8), HEK293T; type: cell-based; settings: human, HEK293T cells; 48 h culture, CCK-8; mean ± SEM, three experiments
Method: (§1) HepG2 (JCRB1054) and HEK293T cell lines were obtained from the Japanese Collection of Research Bioresources (JCRB, Osaka, Japan) and Prof. Yoshiharu Matsuura (Osaka University, Osaka, Japan), respectively. The cells were cultured in Dulbecco’s modified Eagle’s medium (DMEM (1.0 g/L glucose) with L-glutamine and sodium pyruvate; Nacalai Tesque, Kyoto, Japan) supplemented with 10% (v/v) fetal bovine serum (FBS; Gibco-BRL, Grand Island, NY, USA) in a humidified incubator with 5% CO2 at 37 °C. For the cytotoxic assay, the cells (5 × 10^3/well) were seeded in a 96-well plate. […] Cell viability was measured using a Cell Counting Kit-8 (Dojindo) according to the manufacturer’s instructions. Briefly, 10 µL CCK-8 reagent was added to each well containing culture medium and incubated for 2 h under standard culture conditions. The absorbance of the sample was measured at 450 nm using a PowerWave HT microplate spectrophotometer (BioTek Instruments, Winooski, VT, USA). The cell viability was expressed as a percentage of the absorbance of the untreated control cells after subtracting the appropriate background intensity. The CC50 (mean ± SEM) was calculated as described in IC50. The SI, which is the ratio between the cytotoxicity and anti-malarial activity, was calculated according to the following equation. SI=mean CC50/mean IC50.

[6] = Cytotoxic assay (Cell Counting Kit-8), HepG2; type: cell-based; settings: human, HepG2 cells; 48 h culture, CCK-8; mean ± SEM, three experiments
Method: as §1

[7] = test system: Plasmodium berghei NK65; assay: In vivo anti-malarial activity, rodent malaria model, oral administration; parameters: species or system Plasmodium berghei (in ICR mice); settings: for MSD (mean survival day) / % suppression on day 4: mice; for MSD (mean survival day): observed to day 30; for % suppression on day 4: repeated for 3 consecutive days, parasitaemia vs control
Method: The in vivo anti-malarial efficacy of ITT-001 to 006 was evaluated using the rodent malaria parasite P. berghei NK65 as described by Fidock et al., with some modifications. The parasite was maintained by syringe passage every week in female ICR mice (4–8-week-old; body weight, 25–27 g, Sankyo Lab Service, Tokyo, Japan). On day 0, a 200 µL aliquot of saline containing 2 × 10^7 iRBCs prepared from the pre-infected mice was injected intravenously into the mice. After 4 h, basic blue 3 and ITT-001 to 006 dissolved or suspended in 5% (w/v) methyl cellulose 400 solution (FUJIFILM Wako Pure Chemical, Osaka, Japan) were orally administered (100 mg/kg body weight of basic blue 3 and ITT-001 to 006 and 50 mg/kg body weight of ITT-004) to the mice (four and five groups for basic blue 3 and ITT-001 to 006, respectively). The control group (five mice/group) was treated with approximately 100 µL of the vehicle. This treatment was repeated for 3 consecutive days. On day 4, peripheral blood samples were obtained from the tail veins of the mice and thin blood smears stained with Diff-Quik stain kit (Sysmex) were observed under a Leica DM6000B microscope (Leica Microsystems, Wetzlar, Germany). Parasitaemia was determined by counting over 10 fields of view. The suppression rate (%) was calculated as the difference in parasitaemia between the test and control groups. The mean survival day (MSD) was calculated from the number of the surviving mice on day 30. The surviving mice were cured on day 30. Kaplan–Meier curves were generated to graphically display the efficacy using GraphPad Prism version 5.0.

[8] = Measurement of fluorescence spectrum (self-fluorescence); type: physicochemical; settings: 10 µM in saline containing 1% DMSO, excitation 592 nm, emission 630-730 nm
Method: Fluorescence spectrum of basic blue 3 and ITT-001 to 006 (10 µM) was obtained in saline containing 1% DMSO at room temperature. The compounds were excited at 592 nm (bandpass width, 5 nm) and their emission spectra, 630 nm to 730 nm, were measured with a RF-5300PC Spectro fluorophotometer (Shimadzu).

[9] = test system: Plasmodium falciparum 3D7 (ring-form-synchronized); assay: Characterization of anti-malarial activity in vitro, 24 h treatment, XN-30 analyzer and light microscopy; type: cell-based; settings: 3D7, 24 h treatment; for concentration at which parasites were arrested or killed with the ring-form: XN-30 analyzer (Fig. 2i); for concentration at which trophozoites appeared: XN-30 analyzer (Fig. 2ii)
Method: The ring-form-synchronized parasite (3D7 strain) was treated with the indicated concentrations of basic blue 3 and ITT-001 to 006 for 24 h for flow cytometric and morphological analyses using an automated haematology analyzer, XN-30, and light microscope, respectively.
For the flow cytometric analysis, the XN30 analyzer was equipped with a prototype algorithm for cultured P. falciparum [prototype; software version: 01-03, (build 16)] and specific reagents were used ([…] DCL, SULFOLYSER, Lysercell M, and Fluorocell M) (Sysmex, Kobe, Japan). Approximately 100 µL of the culture suspension diluted with 100 µL phosphate-buffered saline was added into a BD Microtainer MAP Microtube for Automated Process K2 EDTA 1.0 mg tube (Becton–Dickinson and Co., Franklin Lakes, NJ, USA) and loaded onto the XN-30 analyzer with an auto-sampler as described in the instrument’s manual (Sysmex). […] Horizontal and vertical axes represent the intensities of side fluorescent light (SFL, which corresponds to DNA content) and forward scattered light (FSC, indicating iRBC size), respectively. Colours indicate the following based on the default setting: red, ring-form; orange, trophozoite; purple, schizont; and blue, polychromatic RBC. Once parasites replicate DNA, dots are plotted to the right side on the M scattergram according to the increase in DNA content. The parasitaemias (total, MI-RBC%; ring-form, RNG-RBC%; trophozoite, TRPZ-RBC%; and schizont, SCHZ-RBC%) were automatically reported.
A standard thin blood smear was fixed with 100% methanol for 10 min and stained with 10% Giemsa working solution, pH 7.2 (Merck KGaA, Darmstadt, Germany) for 13 min.

[10] = 48 h treatment, ring-form-synchronized, XN-30 analyzer, mean ± SEM, three experiments
[11] = Plasmodium falciparum, 3D7, 48 h, 48 h treatment, ring-form-synchronized, XN-30 analyzer, mean ± SEM, three experiments
[12] = Plasmodium falciparum, W2, 48 h, 48 h treatment, ring-form-synchronized, XN-30 analyzer, mean ± SEM, three experiments
[13] = oral 100 mg/kg, surviving mice considered cured

Work on `C[C@@H]1CC[C@H]2[C@@H](C)C(=O)O[C@@H]3O[C@@]4(C)CC[C@@H]1[C@]32OO4` [ART, artemisinin, reference compound] yielded an IC50 [1, 10] of 5.5 ± 0.018 nM and an IC50 [2, 10] of 13.2 ± 1.4 nM.
In the case of `CCN(CC)CCCC(C)Nc1ccnc2cc(Cl)ccc12` (stereo not shown) [CQ, chloroquine, reference compound], the IC50 ([3]; Plasmodium falciparum, 3D7, 48 h) is reported as 8.6 ± 0.21 nM, the IC50 ([4]; Plasmodium falciparum, W2, 48 h) is reported as 225 ± 23.2 nM and the IC50 ([1]; 48 h) is reported as 38.6 ± 5.2 nM. For the same compound, the IC50 ([2]; 48 h) was 58 ± 2.6 nM.
Work on `CCN(CC)c1ccc2c(c1)Oc1cc(N(CC)CC)ccc1N2C(C)=O` [ITT-001, 1-(3,7-Bis(diethylamino)-10H-phenoxazin-10-yl)ethanone] yielded an IC50 [3, 11] of 11.2 ± 1.3 nM, an IC50 [4, 12] of 11.1 ± 1.8 nM and an IC50 [1, 10] of 34.6 ± 9.1 nM. The IC50 [2, 10] was 39 ± 11.2 nM, the CC50 at 48 h [5] was 320 ± 42 nM and the CC50 at 48 h [6] was 4000 ± 850 nM. The “MSD (mean survival day)” value ([7]; oral 100 mg/kg) was 20.4 days, the “% suppression on day 4” value ([7]; oral 100 mg/kg) was greater than 99% and the “# of survived mice on day 30” value [7, 13] was 3/5.
Work on `CCN(CC)c1ccc2c(c1)Oc1cc(N(CC)CC)ccc1N2C(=O)C(C)(C)C` [ITT-002, 1-(3,7-Bis(diethylamino)-10H-phenoxazin-10-yl)-2,2-dimethylpropan-1-one] yielded an IC50 [3, 11] of 10.7 ± 1.5 nM, an IC50 [4, 12] of 10.4 ± 2.8 nM and an IC50 [1, 10] of 20.7 ± 1.6 nM. The IC50 [2, 10] was 24.4 ± 3.7 nM, the CC50 at 48 h [5] was 200 ± 21 nM and the CC50 at 48 h [6] was greater than 50000 nM. For the same compound, the “MSD (mean survival day)” value ([7]; oral 100 mg/kg) was 19.2 days, the “% suppression on day 4” value ([7]; oral 100 mg/kg) was greater than 99% and the “# of survived mice on day 30” value [7, 13] was 2/5.
Compound `CCN(CC)c1ccc2c(c1)Oc1cc(N(CC)CC)ccc1N2C(=O)C1CC1` [ITT-003] has an IC50 [3, 11] of 9.8 ± 1 nM, an IC50 [4, 12] of 9.6 ± 2.1 nM and an IC50 [1, 10] of 24.9 ± 3.1 nM. It also gave an IC50 [2, 10] of 31.3 ± 9.8 nM, a CC50 at 48 h [5] of 9200 ± 3800 nM and a CC50 at 48 h [6] greater than 50000 nM. For the same compound, the “MSD (mean survival day)” value ([7]; oral 100 mg/kg) was 21.0 days, the “% suppression on day 4” value ([7]; oral 100 mg/kg) was greater than 99% and the “# of survived mice on day 30” value [7, 13] was 2/5.
Compound `CCN(CC)c1ccc2c(c1)Oc1cc(N(CC)CC)ccc1N2C(=O)c1ccccc1` [ITT-004, (3,7-Bis(diethylamino)-10H-phenoxazin-10-yl)(phenyl)methanone] has an IC50 [3, 11] of 11.3 ± 2.4 nM, an IC50 [4, 12] of 12.3 ± 2.7 nM and an IC50 [1, 10] of 26.4 ± 2.9 nM. For the same compound, the IC50 [2, 10] was 30.5 ± 2 nM, the CC50 at 48 h [5] was 10500 ± 3400 nM and the CC50 at 48 h [6] was greater than 50000 nM. The “MSD (mean survival day)” value ([7]; oral 50 mg/kg) was 11.8 days, the “% suppression on day 4” value ([7]; oral 50 mg/kg) was greater than 99% and the “MSD (mean survival day)” value ([7]; oral 100 mg/kg) was 29.4 days. The “% suppression on day 4” value ([7]; oral 100 mg/kg) was greater than 99%, the “# of survived mice on day 30” value ([7]; oral 50 mg/kg) was 0/5 and the “# of survived mice on day 30” value ([7]; oral 100 mg/kg, surviving mice considered cured, 100 mg/kg) was “four of five and 4 out of 5 and 4/5”. For the same compound, the maximum fluorescence intensity [8] was “less than 3 a.u”.
Work on `CCN(CC)CC(=O)N1c2ccc(N(CC)CC)cc2Oc2cc(N(CC)CC)ccc21.Cl` [ITT-005, 1-(3,7-Bis(diethylamino)-10H-phenoxazin-10-yl)-2-(diethylamino)ethanone hydrochloride] yielded an IC50 [1, 10] of 130 ± 9.3 nM, an IC50 [2, 10] of 184 ± 30.1 nM and a CC50 at 48 h [5] of 730 ± 93 nM. The CC50 at 48 h [6] was 4600 ± 260 nM, the “MSD (mean survival day)” value ([7]; oral 100 mg/kg) was 14.0 days and the “% suppression on day 4” value ([7]; oral 100 mg/kg) was greater than 99%. The “# of survived mice on day 30” value [7, 13] was 1/5, the “concentration at which parasites were arrested or killed with the ring-form” value [9] was 5000 nM and the “concentration at which trophozoites appeared” value [9] was 150 nM.
With `CCN(CC)c1ccc2c(c1)Oc1cc(N(CC)CC)ccc1N2C(=O)c1ccc(F)cc1` [ITT-006, (3,7-Bis(diethylamino)-10H-phenoxazin-10-yl)(4-fluorophenyl)methanone] the IC50 [3, 11] was 10.6 ± 1.6 nM, the IC50 [4, 12] was 16 ± 4.5 nM and the IC50 [1, 10] was 27.5 ± 3.4 nM. It also gave an IC50 [2, 10] of 29.4 ± 5.8 nM, a CC50 at 48 h [5] of 13600 ± 3000 nM and a CC50 at 48 h [6] greater than 50000 nM. The “MSD (mean survival day)” value ([7]; oral 100 mg/kg) was 13.0 days, the “% suppression on day 4” value ([7]; oral 100 mg/kg) was 91.5% and the “# of survived mice on day 30” value [7, 13] was 0/5. The maximum fluorescence intensity [8] was “less than 3 a.u”.
In the case of `CCN(CC)c1ccc2nc3ccc(=[N+](CC)CC)cc-3oc2c1` [basic blue 3], the IC50 [3, 10] is reported as 3.2 ± 0.19 nM, the IC50 [3, 11] is reported as roughly 4 nM and the IC50 [4, 10] is reported as 4.8 ± 0.53 nM. For the same compound, the IC50 [4, 12] was roughly 4 nM, the IC50 [1, 10] was 5.2 ± 1.1 nM and the IC50 [2, 10] was 5.9 ± 0.68 nM. The CC50 at 48 h [5] was 21 ± 4.2 nM, the CC50 at 48 h [6] was 1000 ± 64 nM and the “MSD (mean survival day)” value ([7]; oral 100 mg/kg) was 20.3 days. For the same compound, the “% suppression on day 4” value ([7]; oral 100 mg/kg) was greater than 99%, the “# of survived mice on day 30” value [7, 13] was 1/4 and the “concentration at which parasites were arrested or killed with the ring-form” value [9] was 15 nM. For the same compound, the “concentration at which trophozoites appeared” value [9] was 0.5 nM and the maximum fluorescence intensity [8] was 775 a.u.
